Test results: PubChem BioAssay (NCI)
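48-hour exposure; five concentrations; linearly interpolated endpoints. The concentration for 50% growth inhibition is given as GI50. TGI: concentration producing complete growth inhibition.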

Key:
Experiment in all cases: NCI anticancer screen, dose series, 48 h
SF-295 CNS = test system: SF-295 CNS
SN12C renal = test system: SN12C renal
SR leukemia = test system: SR leukemia
NCI/ADR-RES ovarian = test system: NCI/ADR-RES ovarian
HCT-116 colon = test system: HCT-116 colon
MCF7 breast = test system: MCF7 breast
TK-10 renal = test system: TK-10 renal
SK-OV-3 ovarian = test system: SK-OV-3 ovarian
RPMI-8226 leukemia = test system: RPMI-8226 leukemia
HT29 colon = test system: HT29 colon
A549 NSCLC = test system: A549 NSCLC
HL-60(TB) leukemia = test system: HL-60(TB) leukemia
UO-31 renal = test system: UO-31 renal
BT-549 breast = test system: BT-549 breast
HCC-2998 colon = test system: HCC-2998 colon
M14 melanoma = test system: M14 melanoma
SW-620 colon = test system: SW-620 colon
SF-268 CNS = test system: SF-268 CNS
SNB-19 CNS = test system: SNB-19 CNS
SK-MEL-28 melanoma = test system: SK-MEL-28 melanoma
LOX IMVI melanoma = test system: LOX IMVI melanoma
UACC-257 melanoma = test system: UACC-257 melanoma
OVCAR-8 ovarian = test system: OVCAR-8 ovarian
NCI-H226 lung = test system: NCI-H226 lung
HOP-62 NSCLC = test system: HOP-62 NSCLC
CAKI-1 renal = test system: CAKI-1 renal
OVCAR-3 ovarian = test system: OVCAR-3 ovarian
SK-MEL-5 melanoma = test system: SK-MEL-5 melanoma
RXF 393 renal = test system: RXF 393 renal
MDA-MB-435 = test system: MDA-MB-435
T-47D breast = test system: T-47D breast
786-0 renal = test system: 786-0 renal
U251 CNS = test system: U251 CNS
MDA-MB-231 breast = test system: MDA-MB-231 breast
MALME-3M melanoma = test system: MALME-3M melanoma
CCRF-CEM leukemia = test system: CCRF-CEM leukemia
SF-539 CNS = test system: SF-539 CNS
NCI-H522 lung = test system: NCI-H522 lung
NCI-H460 lung = test system: NCI-H460 lung
SK-MEL-2 melanoma = test system: SK-MEL-2 melanoma
A498 renal = test system: A498 renal
HOP-92 NSCLC = test system: HOP-92 NSCLC
ACHN renal = test system: ACHN renal
DU-145 prostate = test system: DU-145 prostate
OVCAR-4 ovarian = test system: OVCAR-4 ovarian
MOLT-4 leukemia = test system: MOLT-4 leukemia
IGROV1 ovarian = test system: IGROV1 ovarian
OVCAR-5 ovarian = test system: OVCAR-5 ovarian
K-562 leukemia = test system: K-562 leukemia
HS 578T breast = test system: HS 578T breast
KM12 colon = test system: KM12 colon
COLO 205 colon = test system: COLO 205 colon
HCT-15 colon = test system: HCT-15 colon
EKVX NSCLC = test system: EKVX NSCLC
NCI-H23 lung = test system: NCI-H23 lung
UACC-62 melanoma = test system: UACC-62 melanoma
SNB-75 CNS = test system: SNB-75 CNS
PC-3 prostate = test system: PC-3 prostate

Cc1cc(Nc2nc(-c3ccncc3)nc3ccccc23)n[nH]1
GI50 (SF-295 CNS): 17.4 µM | TGI (SF-295 CNS): > 100 µM | GI50 (SN12C renal): 4.55 µM | TGI (SN12C renal): > 100 µM | GI50 (SR leukemia): 1.72 µM | TGI (SR leukemia): 47.7 µM | GI50 (NCI/ADR-RES ovarian): 11.1 µM | TGI (NCI/ADR-RES ovarian): > 100 µM | GI50 (HCT-116 colon): 1.99 µM | TGI (HCT-116 colon): > 100 µM | GI50 (MCF7 breast): 8.18 µM | TGI (MCF7 breast): > 100 µM | GI50 (TK-10 renal): 2.07 µM | TGI (TK-10 renal): > 100 µM | GI50 (SK-OV-3 ovarian): 3.45 µM | TGI (SK-OV-3 ovarian): > 100 µM | GI50 (RPMI-8226 leukemia): > 100 µM | TGI (RPMI-8226 leukemia): > 100 µM | GI50 (HT29 colon): 2.88 µM | TGI (HT29 colon): > 100 µM | GI50 (A549 NSCLC): 3.59 µM | TGI (A549 NSCLC): > 100 µM | GI50 (HL-60(TB) leukemia): 10.7 µM | TGI (HL-60(TB) leukemia): > 100 µM | GI50 (UO-31 renal): 1.23 µM | TGI (UO-31 renal): > 100 µM | GI50 (BT-549 breast): 9.09 µM | TGI (BT-549 breast): > 100 µM | GI50 (HCC-2998 colon): 29.6 µM | TGI (HCC-2998 colon): > 100 µM | GI50 (M14 melanoma): 10.3 µM | TGI (M14 melanoma): > 100 µM | GI50 (SW-620 colon): 3.71 µM | TGI (SW-620 colon): > 100 µM | GI50 (SF-268 CNS): 5.62 µM | TGI (SF-268 CNS): > 100 µM | GI50 (SNB-19 CNS): 83.1 µM | TGI (SNB-19 CNS): > 100 µM | GI50 (SK-MEL-28 melanoma): 88.8 µM | TGI (SK-MEL-28 melanoma): > 100 µM | GI50 (LOX IMVI melanoma): 2.69 µM | TGI (LOX IMVI melanoma): > 100 µM | GI50 (UACC-257 melanoma): 48 µM | TGI (UACC-257 melanoma): > 100 µM | GI50 (OVCAR-8 ovarian): 11 µM | TGI (OVCAR-8 ovarian): > 100 µM | GI50 (NCI-H226 lung): 13.8 µM | TGI (NCI-H226 lung): > 100 µM | GI50 (HOP-62 NSCLC): 11 µM | TGI (HOP-62 NSCLC): > 100 µM | GI50 (CAKI-1 renal): 0.58 µM | TGI (CAKI-1 renal): > 100 µM | GI50 (OVCAR-3 ovarian): 9.26 µM | TGI (OVCAR-3 ovarian): > 100 µM | GI50 (SK-MEL-5 melanoma): 52.6 µM | TGI (SK-MEL-5 melanoma): > 100 µM | GI50 (RXF 393 renal): 0.91 µM | TGI (RXF 393 renal): 9.29 µM | GI50 (MDA-MB-435): 12.1 µM | TGI (MDA-MB-435): > 100 µM | GI50 (T-47D breast): 5 µM | TGI (T-47D breast): > 100 µM | GI50 (786-0 renal): 2.98 µM | TGI (786-0 renal): > 100 µM | GI50 (U251 CNS): 4.1 µM | TGI (U251 CNS): > 100 µM | GI50 (MDA-MB-231 breast): 14.7 µM | TGI (MDA-MB-231 breast): > 100 µM | GI50 (MALME-3M melanoma): > 100 µM | TGI (MALME-3M melanoma): > 100 µM | GI50 (CCRF-CEM leukemia): 25.2 µM | TGI (CCRF-CEM leukemia): > 100 µM | GI50 (SF-539 CNS): 3.83 µM | TGI (SF-539 CNS): > 100 µM | GI50 (NCI-H522 lung): 13.1 µM | TGI (NCI-H522 lung): > 100 µM | GI50 (NCI-H460 lung): 6.18 µM | TGI (NCI-H460 lung): > 100 µM | GI50 (SK-MEL-2 melanoma): 34.3 µM | TGI (SK-MEL-2 melanoma): > 100 µM | GI50 (A498 renal): 0.654 µM | TGI (A498 renal): 6.01 µM | GI50 (HOP-92 NSCLC): 4.39 µM | TGI (HOP-92 NSCLC): > 100 µM | GI50 (ACHN renal): 1.06 µM | TGI (ACHN renal): > 100 µM | GI50 (DU-145 prostate): 24.2 µM | TGI (DU-145 prostate): > 100 µM | GI50 (OVCAR-4 ovarian): 15.5 µM | TGI (OVCAR-4 ovarian): > 100 µM | GI50 (MOLT-4 leukemia): 33.9 µM | TGI (MOLT-4 leukemia): > 100 µM | GI50 (IGROV1 ovarian): 1.92 µM | TGI (IGROV1 ovarian): > 100 µM | GI50 (OVCAR-5 ovarian): > 100 µM | TGI (OVCAR-5 ovarian): > 100 µM | GI50 (K-562 leukemia): 4.99 µM | TGI (K-562 leukemia): > 100 µM | GI50 (HS 578T breast): 1.36 µM | TGI (HS 578T breast): 7.47 µM | GI50 (KM12 colon): 0.335 µM | TGI (KM12 colon): > 100 µM | GI50 (COLO 205 colon): 2.17 µM | TGI (COLO 205 colon): 6.4 µM | GI50 (HCT-15 colon): 1.77 µM | TGI (HCT-15 colon): > 100 µM

CC1(C)CC(=O)C2=C(C1)OC1(CC2c2ccc(Cl)cc2)CC(c2ccc(Cl)cc2)C2=C(CC(C)(C)CC2=O)O1 (stereo not drawn)
TGI (SF-295 CNS): > 53.2 µM | TGI (SN12C renal): > 84.2 µM | TGI (SR leukemia): 87.2 µM | TGI (EKVX NSCLC): 34.4 µM | TGI (NCI/ADR-RES ovarian): > 73.3 µM | TGI (HCT-116 colon): > 48.9 µM | TGI (MCF7 breast): > 100 µM | TGI (TK-10 renal): > 83.8 µM | TGI (SK-OV-3 ovarian): 29.4 µM | TGI (RPMI-8226 leukemia): 28.5 µM | TGI (HT29 colon): > 100 µM | TGI (NCI-H23 lung): 34.9 µM | TGI (A549 NSCLC): 30.9 µM | TGI (HL-60(TB) leukemia): 24.1 µM | TGI (UO-31 renal): 30.7 µM | TGI (UACC-62 melanoma): > 53.5 µM | TGI (BT-549 breast): 50.6 µM | TGI (HCC-2998 colon): 38.5 µM | TGI (SNB-75 CNS): 37.1 µM | TGI (M14 melanoma): > 52.1 µM | TGI (SW-620 colon): 61.2 µM | TGI (SF-268 CNS): 42 µM | TGI (SNB-19 CNS): 54.6 µM | TGI (SK-MEL-28 melanoma): 34 µM | TGI (LOX IMVI melanoma): 64.2 µM | TGI (UACC-257 melanoma): > 61.7 µM | TGI (OVCAR-8 ovarian): 87.5 µM | TGI (NCI-H226 lung): 42.1 µM | TGI (HOP-62 NSCLC): 34.2 µM | TGI (CAKI-1 renal): 52.3 µM | TGI (OVCAR-3 ovarian): 23.5 µM | TGI (SK-MEL-5 melanoma): 31.4 µM | TGI (RXF 393 renal): 94.3 µM | TGI (MDA-MB-435): 33.7 µM | TGI (786-0 renal): 35.9 µM | TGI (U251 CNS): > 57.6 µM | TGI (MDA-MB-231 breast): 50.3 µM | TGI (PC-3 prostate): > 65.9 µM | TGI (MALME-3M melanoma): 30.1 µM | TGI (CCRF-CEM leukemia): > 76.7 µM | TGI (SF-539 CNS): > 51.3 µM | TGI (NCI-H522 lung): 27.6 µM | TGI (NCI-H460 lung): > 65.1 µM | TGI (SK-MEL-2 melanoma): 43.8 µM | TGI (A498 renal): 31 µM | TGI (HOP-92 NSCLC): 25.7 µM | TGI (ACHN renal): 38.9 µM | TGI (DU-145 prostate): 46.4 µM | TGI (OVCAR-4 ovarian): 30.6 µM | TGI (MOLT-4 leukemia): 13.6 µM | TGI (IGROV1 ovarian): 33.4 µM | TGI (OVCAR-5 ovarian): > 79.1 µM | TGI (K-562 leukemia): > 51.3 µM | TGI (HS 578T breast): 36.1 µM | TGI (KM12 colon): 40.6 µM | TGI (COLO 205 colon): 36.6 µM | TGI (HCT-15 colon): > 100 µM
